Data published in patent publication US11220518B2, “Substituted n-pyrimidin-4-yl-3-amino-pyrrolo[3,4-c]pyrazoles as protein kinase C inhibitors” (PFIZER INC., priority 2007, dated 2022).
pKi: −log10 of the molar value.

Biological target: Protein Kinase C beta 2 (PKCβII) (Homo sapiens (Human), UniProt P05771)
Experiment: Protein Kinase C beta 2 (PKCβII) coupled PK/LDH spectrophotometric kinase assay
Format: biochemical
Conditions: apparent Ki, ATP-competitive model (Morrison equation); 5 nM PKC, 0.1 mM ATP, 0.15 mM peptide, 30° C., pH 7.4; read-out: Ki app
Procedure: Protein Kinase C beta 2 (PKCβII) catalyzes the production of ADP from ATP that accompanies the phosphoryl transfer to the PKC Pseudosubstrate peptide (A→S, RFARKGSLRQKNV). This transfer is coupled to the oxidation of β-NADH through the activities of Pyruvate Kinase (PK) and Lactate Dehydrogenase (LDH). β-NADH conversion to NAD+ is monitored by the decrease in absorbance at 340 nm (e=6.22 cm^−1 mM^−1) using a Molecular Devices SPECTRA max PLUS spectrophotometer. […]
Steady-state kinetic parameters for the bi-bi kinase reaction were determined at saturating phospho-acceptor peptide substrate concentration (0.15 mM) by fitting initial velocity data to the Michaelis-Menten equation, v=Vmax[S]/(KM[S]) where v is the measured initial velocity, Vmax is the maximal enzyme velocity, [S] is the ATP substrate concentration, and KM is the Michealis constant for ATP. Enzyme turnover values (kcat) were calculated according to […], where [E] is the total enzyme concentration. Enzyme inhibition constants (apparent Ki values) were determined by fitting initial velocities at variable inhibitor concentrations to a model for ATP competitive inhibition based on the Morrison equation). […]

Protein Kinase C beta 2 (PKCβII), sequence (P05771 other isoform, or with tags, fused parts or gaps): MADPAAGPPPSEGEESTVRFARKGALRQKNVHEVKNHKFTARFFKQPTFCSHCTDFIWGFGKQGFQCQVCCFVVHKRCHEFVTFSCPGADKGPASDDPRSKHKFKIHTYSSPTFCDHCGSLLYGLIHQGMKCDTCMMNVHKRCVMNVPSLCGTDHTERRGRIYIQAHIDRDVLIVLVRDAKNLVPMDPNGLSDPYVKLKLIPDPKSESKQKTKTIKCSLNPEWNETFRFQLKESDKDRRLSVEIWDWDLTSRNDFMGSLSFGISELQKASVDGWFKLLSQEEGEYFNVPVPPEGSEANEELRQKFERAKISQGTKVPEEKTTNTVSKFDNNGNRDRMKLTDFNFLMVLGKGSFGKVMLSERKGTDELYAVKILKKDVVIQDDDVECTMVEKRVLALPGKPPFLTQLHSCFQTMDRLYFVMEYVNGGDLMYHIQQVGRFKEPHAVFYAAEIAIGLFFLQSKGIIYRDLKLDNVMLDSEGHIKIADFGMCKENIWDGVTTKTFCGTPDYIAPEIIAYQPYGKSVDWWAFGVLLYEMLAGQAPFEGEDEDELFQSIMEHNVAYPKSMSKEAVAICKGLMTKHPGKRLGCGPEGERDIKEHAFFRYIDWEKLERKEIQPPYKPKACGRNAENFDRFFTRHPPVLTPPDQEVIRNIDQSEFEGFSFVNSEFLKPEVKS

| pKi | SMILES |
| --- | --- |
| 7.81 | COCc1ncc(F)c(Nc2n[nH]c3c2CN(C(=O)N2CC(CCO)N(C)C[C@@H]2C)C3(C)C)n1 (single isomer, unassigned) [Example N3] |
| 8.95 | CCOc1ncc(F)c(Nc2n[nH]c3c2CN(C(=O)N2C[C@@H](C)N(C)C[C@@H]2C)C3(C)C)n1 [Example K1, N-(2-ethoxy-5-fluoropyrimidin-4-yl)-6,6-dimethyl-5-{[(2S,5R)-2,4,5-trimethylpiperazin-1-yl]carbonyl}-1,4,5,6-tetrahydropyrrolo[3,4-c]pyrazol-3-amine] |
